Common to all, as to format: cell-based
Assay [1] has as its system HuCCT1 cells. Nature of the assay: Cell migration activity, Transwell, HuCCT1 cells. Conditions: 100 ng/mL HGF or 200 ng/mL peptide, 24 hours, FIGS. 13, 14. The method, then: HGF has been reported to promote cell migration ability by activating Met (K. Ito, et al. Nat. Commun. 6, 6373, 2015). Therefore, HuCCT1 cell culture was used to evaluate whether the HGF-PAS dimer peptide had the same activity of promoting cell migration as HGF.
To Transwell inserts for 24-well (pore size 3.0 m, Corning), 20,000 HuCCT1 cells suspended in low serum medium (RPMI 1640 medium with 0.5% FBS) were added. A low serum medium containing 100 ng/mL HGF or 200 ng/mL AET-PAS-aMD4dY-PEG11 was added to the lower layer. After culturing for 24 hours under the conditions of 37° C. and 5% CO2, the Transwell inserts were washed 3 times with PBS and cell-fixed and stained with methanol containing 0.5% Crystal Violet (Nacalai Tesque) for 10 minutes. Immobilized and stained Transwell inserts were washed with distilled water. The cells inside the inserts were removed with a scraper. The cells migrated to the outside of the inserts and stained were photographed in the bright field observation mode of a BZ-X microscope (Keyence).
The migration ability was calculated as (area of stained region)/(insert area) and as a relative value (Relative migration efficiency) to the value of the non-added group (Mock) (N=2).

Assay [2] deals with T1, Met (Homo sapiens, UniProt P08581).
T1 construct: endogenous in cells; host or cells: HEK293E
T1 sequence (P08581 25-1390): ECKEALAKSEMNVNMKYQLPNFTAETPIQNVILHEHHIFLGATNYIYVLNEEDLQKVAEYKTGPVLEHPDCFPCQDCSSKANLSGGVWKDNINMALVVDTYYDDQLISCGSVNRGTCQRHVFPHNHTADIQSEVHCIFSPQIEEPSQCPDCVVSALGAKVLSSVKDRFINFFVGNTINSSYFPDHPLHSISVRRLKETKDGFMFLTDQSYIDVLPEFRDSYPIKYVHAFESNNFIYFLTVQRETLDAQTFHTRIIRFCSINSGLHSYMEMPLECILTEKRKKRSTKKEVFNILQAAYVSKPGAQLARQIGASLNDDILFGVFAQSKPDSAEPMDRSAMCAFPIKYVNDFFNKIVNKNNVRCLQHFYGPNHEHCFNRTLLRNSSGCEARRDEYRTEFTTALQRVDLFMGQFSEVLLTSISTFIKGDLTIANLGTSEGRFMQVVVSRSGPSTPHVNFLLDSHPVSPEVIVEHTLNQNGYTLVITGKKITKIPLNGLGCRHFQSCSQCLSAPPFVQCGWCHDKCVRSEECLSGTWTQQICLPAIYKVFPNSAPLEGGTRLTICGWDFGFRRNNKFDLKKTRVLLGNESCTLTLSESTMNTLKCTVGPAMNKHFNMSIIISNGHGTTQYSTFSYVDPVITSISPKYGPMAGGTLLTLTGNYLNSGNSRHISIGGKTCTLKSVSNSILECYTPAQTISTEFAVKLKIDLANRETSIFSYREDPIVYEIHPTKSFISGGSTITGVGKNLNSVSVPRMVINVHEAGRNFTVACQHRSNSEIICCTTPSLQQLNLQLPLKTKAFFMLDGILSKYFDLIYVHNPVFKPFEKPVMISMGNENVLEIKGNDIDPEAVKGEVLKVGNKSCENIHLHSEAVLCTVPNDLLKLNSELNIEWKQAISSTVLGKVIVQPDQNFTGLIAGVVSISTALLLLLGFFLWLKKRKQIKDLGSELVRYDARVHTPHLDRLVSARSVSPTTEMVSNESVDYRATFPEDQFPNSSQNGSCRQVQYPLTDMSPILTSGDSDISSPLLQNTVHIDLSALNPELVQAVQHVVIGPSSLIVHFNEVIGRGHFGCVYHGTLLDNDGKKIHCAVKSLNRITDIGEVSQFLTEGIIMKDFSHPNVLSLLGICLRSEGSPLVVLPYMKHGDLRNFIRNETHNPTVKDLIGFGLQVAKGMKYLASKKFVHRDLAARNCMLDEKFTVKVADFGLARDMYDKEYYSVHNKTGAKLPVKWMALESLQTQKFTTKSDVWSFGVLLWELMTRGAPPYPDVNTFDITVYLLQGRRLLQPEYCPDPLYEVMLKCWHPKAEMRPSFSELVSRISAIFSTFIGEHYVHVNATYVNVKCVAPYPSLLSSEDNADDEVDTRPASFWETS
Kind of assay: Met activation ability, SRE luciferase assay in HEK293E cells (HGF-Erk-SRE pathway). Conditions: for signal activation ability, dimer versus monomer: Example 43, FIG. 76. As for the experimental part: (§1) The Met activation ability of the HGF-PAS dimer peptide was evaluated by luciferase assay. To 25 μL of Opti-MEM medium (Thermo Fisher Scientific), 0.6 μL of Attractene Transfection Reagent (QIAGEN) was added, and the mixture was incubated at room temperature for 5 minutes. To the above mixed solution, a mixed solution of 25 μL of Opti-MEM and 1 μL of SRE reporter vector (QIAGEN) was added, and the mixture was incubated at room temperature for 20 minutes. This mixed solution was added to a 96-well plate, over which 40,000 cell/well HEK293E cells were seeded and incubated overnight in a 5% CO2 incubator at 37° C. After transfection, all culture supernatant was removed, 100 μL of Opti-MEM medium (evaluation basal medium) containing 0.5% FBS (Thermo Fisher Scientific), 1% non-essential amino acid solution (Thermo Fisher Scientific), and penicillin-streptomycin (Nacalai Tesque) was added, and incubation was performed at 37° C. for 4 hours, and thereby the cells were starved.
To the evaluation basal medium, 0 to 200 ng/mL HGF was added, or 0 to 800 ng/mL AET-PAS-aMD4dY-PEG11, AET-PAS-aMD4-PEG11, or AET-PAS-aMD4-PEG3 was added, or a culture supernatant containing PAS-aMD4dY-PEG11, PAS-aMD4-PEG11, or PAS-aMD4-PEG3 was added so as to be diluted 10-fold with respect to the medium, and the evaluation basal medium was added in an amount of 100 μL to the cells. The cells were stimulated by culturing overnight in a 5% CO2 incubator at 37° C.
The signal intensities were detected using Dual-Luciferase Reporter Assay System (Promega). The medium supernatant in an amount of 100 μL was removed, 50 μL of Glo reagent was added, and the cells were lysed for 10 minutes at room temperature. The luminescence of Firefly luciferase emitted from the cell lysate solution was detected with a plate reader to quantify the activation of the HGF-Erk-SRE pathway. Subsequently, 50 μL of Glo & Stop reagent solution was added, and after 10 minutes, the luminescence of the internal standard Renilla luciferase was detected to quantify the number of cells. The signal activity of each sample was quantified as SRE activity=(Firefly luciferase luminescence intensity)/(Renilla luciferase luminescence intensity). The relative signal activity values for the samples without addition of the evaluation compound were determined and used as relative receptor activity.
as §1, with “peptide linker variant” for “peptide”, “0.6 L” for “0.6 μL”
To the evaluation basal medium, 0 to 100 ng/mL HGF was added, or a culture supernatant containing AET-aMD4dY-PAS8, AET-aMD4dY-PAS22 (the same molecule as AET-PAS-aMD4dY-PEG11), AET-aMD4dY-PAS49, AET-aMD4dY-PAS100, AET-aMD4dY-PAS200, AET-aMD4dY-GS15, or AET-aMD4dY-GS22 was added to the medium so as to be diluted at a predetermined ratio, and the evaluation basal medium was added in an amount of 100 μL to the cells. The cells were stimulated by culturing overnight in a 5% CO2 incubator at 37° C.
The Met activation ability of the stabilized HGF-PAS dimer peptide was evaluated by luciferase assay. […]

Assay [3] deals with HuCCT1 cells. Nature of the assay: Cell proliferation promoting activity in HuCCT1 cell culture. Conditions: HGF 35 ng/mL or peptide 40 ng/mL, 5 days, N=3, FIG. 12. As for the experimental part:
HGF has been reported to promote cell proliferation by activating Met (K. Ito, et al. Nat. Commun. 6, 6373, 2015). Therefore, HuCCT1 cell culture was used to evaluate whether the HGF-PAS dimer peptide had the same activity of promoting cell proliferation as HGF.
RPMI 1640 medium (Nacalai Tesque) containing 5% FBS was added to a 24-well cell culture plate, and HuCCT1 cells were seeded at 5,000 cell/well. HGF at 35 ng/mL or AET-PAS-aMD4dY-PEG11 at 40 ng/mL was added, and the cells were cultured at 37° C. and 5% CO2 for 5 days. The cells were detached with 0.25% Trypsin/EDTA (Thermo Fisher Scientific) and the number of cells was quantified with Countess Automated Cell Counter (Thermo Fisher Scientific) (N=3).

Positions of bridges follow the written chain, without caps; N, C: chain ends. No end group written: not given here.

Regarding “AETCRQFNRRTHEVWNLDCGAAPAAPAPAAPAAPAPAAPAAPGCRQFNRRTHEVWNLDC (disulfide 4-19, 44-59; also: PEG11) [AET-PAS-aMD4dY-PEG11]”, the cell migration result in assay [1] is listed as “promoted cell migration”. The “maximum activity compared with HGF” value in assay [2] (Example 6, AET form 0 to 800 ng/mL, PAS form culture supernatant diluted 10-fold) was “comparable to 100 ng/mL HGF”. Also, the “signal activation ability, dimer versus monomer” value in assay [2] is “showed signal activation ability”. Besides, the “proliferation ability relative to the non-added group (Mock)” value in assay [3] is recorded as “about 2.5 times”.

“HGF: recombinant human HGF (rhHGF, R&D Systems)”: the cell migration entry in assay [1] is “proportion of the cells migrating to the lower part of the Transwell inserts increased”. In addition, in assay [2], the “signal activation ability, dimer versus monomer” value is on record as “showed signal activation ability”. Further, in assay [3], the “proliferation ability relative to the non-added group (Mock)” value is on record as “about 2.5 times”.

Source of the values: US20220396819A1, “METHOD FOR PRODUCING PEPTIDE HAVING PHYSIOLOGICAL ACTIVITY, AND PEPTIDE COMPRISING SHORT LINKER” (priority 2019, published 2022).
